Test results published in patent US6362217B1, “Taxane anticancer agents” (Bristol-Myers Squibb Company, priority 2000, dated 2002).
Marks after values point to notes of the source that are not given here.

Experiments:
[1] = system: murine lung carcinoma, M109; test: In vivo antitumor testing, sc M109 tumor model; design: species or system mice; settings: for iv activity compared to concomitantly evaluated iv paclitaxel: scM109 tumors
From the text: (§1) Animals. Conventional or athymic (“nude”) mice, and nude rats, were implanted subcutaneously (sc) with tumor brei or fragments. Murine tumor were implanted in conventional mice, human tumors were implanted into nude mice or rats.
(§2) Tumors. A variety of tumors have been utilized but not all of them have necessarily been used to evaluate each and every taxane. The tumors utilized most often included the murine lung carcinoma, M109, the murine mammary carcinoma, MAM 16/C, the human ovarian carcinoma. A2780, the human colon tumors, HCT-116 and HCT-116/pk.
(§3) Treatments are initiated at differing times post-implantation depending upon the desired stringency of the test system; in general, the greater the delay post-tumor implantation, the larger the tumors at the start of therapy. Typically, treatments were begun in the M109 tumor model on Day 4 post-tumor implant, Day 7 in the MAM 16/C tumor model, and when tumors were between 100 and 500 mg in size (typically Day 7 to Day 12 post-tumor implant) for each of the human tumor xenograft models (e.g., A2780, HCT-116 and HCT-116/pk). Group sizes were typically 8 per treatment and control groups in mouse experiments and 7 per treatment and control groups in rat experiments.
Treatments for taxanes administered orally (po) were done by gavage using a vehicle consisting of 10% ethanol +10% Cremophor EL+80% water. The volume of liquid administered was 0.01 ml per gram of body weight for mice, and 0.005 ml per gram of body weight for rats. A typical mouse experiment would involve the evaluation of each test compound at three different dose levels, but only one to three test groups per compound were included in rat experiments. In every experiment, intravenously (iv) administered paclitaxel was included as a reference drug.
(§4) Paclitaxel was administered iv on treatment schedules and doses established from experience as being optimal, or near optimal, for the particular tumor, tumor staging, and host animal under study. It was given once daily, for five consecutive daily treatments (i.e., qd×5), when evaluated in the M109 and MAM 16/C tumor models, once daily every other day for five treatments (i.e., q2d×5) when administered to mice bearing human tumors, and once daily every other or every fourth day for five or three treatments, respectively (i.e., q2d×5 or q4d×3), to rats.
(§5) Orally administered taxanes were evaluated on the same treatment schedules just described for iv administered paclitaxel, plus other treatment schedules such as daily for nine days, or every eight days for two treatments.
Antitumor activity was assessed by determining the size of tumors in all treated and control experimental animals over time. Each animal was individually identified and the growth of the tumor implanted into each animal was measured once or twice weekly using a calipers. The difference in median time for tumors in treated (T) and control (C) groups to reach a predetermined size (e.g., 500 or 1,000 milligrams) was calculated, and assessments of absolute and relative antitumor effects (e.g., between compounds) were made on the basis of the delays in time to reach predetermined tumor target sizes. Animals with tumors of 35 mg or less at the termination of an experiment were termed “cures”. Experiments were terminated typically after a period of time had elapsed post-treatment that was at least 10 times the tumor volume doubling time (TVDT) of the median tumor growth in control animals as assessed prior to their reaching the predetermined tumor target size in each experiment. Activity in a test group was defined as having caused a delay in tumor growth (median time to reach tumor target size) relative to the concomitant control tumor growth (i.e. T-C) of 3.32 times the TVDT. Activity was expressed in log cell kill which was equal to (T-C)/(TVDT×3.32). Toxicity was determined by measuring the average body weight of all animals in an experiment prior to, and soon after, any treatments in the experiment. […]

[2] = system: HCT-116 human colon carcinoma cells; test: Cytotoxicity, MTS assay; format: cell-based; settings: MTS procedure, 72 hours incubation
Protocol: (§6) Cytoxicity was assessed in HCT-116 human colon carcinoma cells by either using an XTT or MTS procedure.
Cytoxicity was assessed in HCT-116 human colon carcinoma cells by MTS (3-(4,5-dimethylthiazol-2-yl)-5-(3-carboxymethoxyphenyl)-2-(4-sulphenyl)-2H-tetrazolium, inner salt) assay as reported in T. L. Riss, et. al., “Comparison of MTT, XTT, and a novel tetrazolium compound MTS for in vitro proliferation and chemosensitivity assays.” Mol. Biol. Cell 3 (Suppl.):184a, 1992. Cells were plated at 4,000 cell/well in 96 well microtiter plates and 24 hours later drugs were added and serial diluted. The cells were incubated at 37° form 72 hours at which time the tetrazolium dye, MTS at 333 μg/ml (final concentration), in combination with the electron coupling agent phenazine methosulfate at 25 μM (final concentration) was added. A dehydrogenase enzyme in live cells reduces the MTS to a form that absorbs light at […] which can be quantitated spectrophotometrically. The greater the absorbance the greater the number of live cells. The results are expressed as an IC50, which is the drug concentration required to inhibit cell proliferation (i.e. absorbance at 450 nm) to 50% of that of untreated control cells. The IC50 values for compounds evaluated in this assay are evaluated in Table I.

[3] = system: human ovarian carcinoma A2780; test: In vivo antitumor testing, A2780 xenograft model; design: species or system nude mice
From the text: as §1, §2, §3
Treatments for taxanes administered orally (po) were done by gavage using a vehicle consisting of 10% ethanol +10% Cremophor EL+80% water. […]
as §4, §5
Antitumor activity was assessed by determining the size of tumors in all treated and control experimental animals over time. Each animal was individually identified and the growth of the tumor implanted into each animal was measured once or twice weekly using a calipers. The difference in median time for tumors in treated (T) and control (C) groups to reach a predetermined size (e.g., 500 or 1,000 milligrams) was calculated, and assessments of absolute and relative antitumor effects (e.g., between compounds) were made on the basis of the delays in time to reach predetermined tumor target sizes. […]

[4] = system: HCT-116 human colon carcinoma cells; test: Cytotoxicity, XTT assay; format: cell-based; settings: XTT procedure, 72 hours incubation
Protocol: as §6
Cytotoxicity was assessed in HCT-116 human colon carcinoma cells by XTT (2,3-bis(2-methoxy-4-nitro-5-sulfpphenyl)-5-[(phenylamino)carbonyl]2H-tetrazolium hydroxide) assay as reported in D. A. Scudiero, et al., “Evaluation of soluble tetrazolium/formazan assay for cell growth and drug sensitivity in culture using human and other tumor cell lines,” Cancer Res. 48:4827-4833, 1988. Cells were plated at 4000 cells/well in 96 well microtiter plates and 24 hours later drugs were added and serial diluted. The cells were incubated at 37° C. for 72 hours at which time the tetrazolium dye, XTT, was added. A dehydrogenase enzyme in live cells reduces the XTT to a form that absorbs light at 450 nm which can be quantitated spectrophotometrically. The greater the absorbance, the greater the number of live cells. The results are expressed as an IC50, which is the drug concentration required to inhibit cell proliferation (i.e., absorbance at 450 nm) to 50% of that of untreated control cells.

[5] = human or animal models, prior art; cited from earlier work

## 3′N-(2-furoyl)-7-deoxy paclitaxel [Ib]
[1]; iv, 20 mg/kg per injection, M109
  IV Activity in LCK: 0.7 LCK
[1]; iv
  iv activity compared to concomitantly evaluated iv paclitaxel: equiactive to paclitaxel
[1]; oral, M109 model
  oral activity: active orally
[1]; po, 40 mg/kg per administration, M109
  PO Activity in LCK: 0.7 LCK
[2]
  IC50: 0.85 nM
[3]; oral, A2780 model
  oral activity compared to optimal iv paclitaxel: equallyactive if not better
[3]; po, 85 mg/kg per administration, A2780
  PO Activity in LCK: >7 LCK
[3]; po, 85 mg/kg per administration, A2780, cure = tumor of 35 mg or less at termination
  Cures (mice cured / tested): (1/8)**

## 7-deoxy-3′-(4-hydroxyphenyl)-3′N-t-butoxycarbonyl paclitaxel [Compound Ia]
[1]; iv, 13 mg/kg per injection, M109, log cell kill = (T-C)/(TVDT×3.32)
  IV Activity in LCK: 1.4 LCK
[1]; iv
  iv activity compared to concomitantly evaluated iv paclitaxel: surprising activity
[2]
  IC50: 4.3 nM

## 10-(2-amino)benzoyl-7-deoxy paclitaxel [Ih]
[4]
  IC50: 102 nM

## CC(=O)OC12COC1CCC1(C)C(=O)C(OC(=O)N3CCOCC3)C3=C(C)C(OC(=O)C(O)C(NC(=O)c4ccccc4)c4ccccc4)CC(O)(C(OC(=O)c4ccccc4)C12)C3(C)C (stereo not drawn) [Ic, 10-Morpholinoyl-7-deoxy paclitaxel]
[4]
  IC50: 1.49 nM

## CCCCCCCC(=O)OC1C(=O)C2(C)CCC3OCC3(OC(C)=O)C2C(OC(=O)c2ccccc2)C2(O)CC(OC(=O)C(O)C(NC(=O)c3ccccc3)c3ccccc3)C(C)=C1C2(C)C (stereo not drawn) [Id, 10-Octanoyl-7-deoxy paclitaxel]
[4]
  IC50: 98.2 nM

## CC(=O)OC12COC1CCC1(C)C(=O)C(OC(=O)COc3ccccc3)C3=C(C)C(OC(=O)C(O)C(NC(=O)c4ccccc4)c4ccccc4)CC(O)(C(OC(=O)c4ccccc4)C12)C3(C)C (stereo not drawn) [Ie, 10-Phenoxyacetyl-7-deoxy paclitaxel]
[4]
  IC50: 8.09 nM

## CC(=O)OC12COC1CCC1(C)C(=O)C(OC(=O)c3ccccc3[N+](=O)[O-])C3=C(C)C(OC(=O)C(O)C(NC(=O)c4ccccc4)c4ccccc4)CC(O)(C(OC(=O)c4ccccc4)C12)C3(C)C (stereo not drawn) [If, 10-(2-Nitro)benzoyl-7-deoxy paclitaxel]
[4]
  IC50: 13.3 nM

## CC(=O)OC12COC1CCC1(C)C(=O)C(OC(=O)C=Cc3ccccc3)C3=C(C)C(OC(=O)C(O)C(NC(=O)c4ccccc4)c4ccccc4)CC(O)(C(OC(=O)c4ccccc4)C12)C3(C)C (stereo not drawn) [Ig, 10-Cinnamoyl-7-deoxy paclitaxel]
[4]
  IC50: 28.4 nM

## CC(=O)O[C@H]1C(=O)[C@@]2(C)[C@H]([C@H](OC(=O)c3ccccc3)[C@]3(O)C[C@H](OC(=O)[C@H](O)[C@@H](NC(=O)c4ccccc4)c4ccccc4)C(C)=C1C3(C)C)[C@]1(OC(C)=O)CO[C@@H]1C[C@@H]2O [Paclitaxel, paclitaxel, reference compound]
[5]
  oral activity: no oral activity
[1]; iv, optimal dose and schedule (qd×5), M109, concomitantly evaluated
  Optimal Activity of iv Paclitaxel: 0.7 LCK
[3]; iv, optimal dose and schedule (q2d×5), A2780, concomitantly evaluated
  Optimal Activity of iv Paclitaxel: 5.9 LCK

## CC(=O)O[C@@]12CO[C@@H]1C[C@H](O)[C@@]1(C)C(=O)[C@H](O)C3=C(C)[C@@H](OC(=O)[C@H](O)[C@@H](NC(=O)OC(C)(C)C)c4ccccc4)C[C@@](O)([C@@H](OC(=O)c4ccccc4)[C@H]21)C3(C)C [TAXOTERE®, docetaxel]
[5]
  oral activity: no oral activity
